{"source": "patent US20130273519A1", "about": "“COMPOSITION FOR TREATING BLOOD AND SET OF DIAGNOSTIC KIT COMPRISING THE SAME TO DETECT AUTOIMMUNE DISEASE” (priority 2012, published 2013)", "test_system": "level of expression of MMP-3 in blood", "test": "Level of expression of MMP-3 in blood stimulated with PMA, measured using flow cytometer (FACS)", "format": "cell-based, human", "parameters": "unit not given here", "settings": "for level of expression of MMP-3, After: 500 ul whole blood, 90 ng PMA, 3 h + 6 h Brefeldin A; for level of expression of MMP-3, Total (After minus Before): PMA stimulation", "description": "In order to implement the method of stimulating blood and to check the clinical value of the kit of the present invention, the level of expression of MMP-3 was checked using a flow cytometer. 3 ml of blood was collected to sodium citrate tube (BD vacutainer), and CBC (complete blood count) was measured immediately upon pumping-up the blood. Then, the blood was stimulated with the chemical substance of the present invention. 500 ul of whole blood was put into the 24 wells plate for cell culture, and 90 ng of PMA was added into the plate. Then, the cell culture plate was put into a 5% CO2 incubator, and was kept at 37 for 3 hours. After 3 hours, 200 ug/ml of Brefeldin A(SIGMA) was added into the plate, and placed at 37 for 6 hours.\nAfter lapse of the total 9 hours, 50 ul of blood was extracted, and put into 2 tubes respectively. Then, 10 ul of CD45-PC5 10 and 10 ul of CD14-FITC were respectively added to the 2 tubes, mixed with each other, and placed in a darkroom at room temperature for 15 min. Then, 100 ul of RBC lysis buffer (Bechman coulter) was added to the 2 tubes respectively, and mixed with each other using a vortex. The mixtures were placed in a darkroom at room temperature for 15 min. Then, 4 ml of PBS was added to the 2 tubes respectively, and centrifuged to remove the supernatant. Here, the supernatant was not removed using pipette, but poured out to minimize the loss of cells. 100 ul of 0.1% saponin was added to the remaining cells, and stirred smoothly using pipette. Then, the mixture was placed in a darkroom at room temperature for 5min. Then, 10 ul of IgG1-PE was added to the control group and 10 ul of MMP-3-PE was added to the comparative group, and then the both groups were placed in a darkroom for 15 min. After 15 min, 4 ml of PBS was added to the each group, and centrifuged under the condition of 2000 g, 5 min and 4 to remove the supernatant. Then, 500 ul of fresh PBS was added to the each group, and fluorescence-activated cell sorting (FACS) was performed.", "key": {"[1]": {"settings": "RA (R), patient with reduced activity after being treated with drugs"}, "[2]": {"settings": "RA (S), patient with severe rheumatoid arthritis"}, "[3]": {"settings": "RA (mi), patient with mild rheumatoid arthritis"}}}
{"smiles": "CCCCCCCCCCCCCC(=O)O[C@@H]1[C@@H](C)[C@@]2(O)[C@@H](C=C(CO)C[C@]3(O)C(=O)C(C)=C[C@@H]23)[C@@H]2C(C)(C)[C@]12OC(C)=O", "note": "[PMA, Phorbol 12-myristate 13-acetate]", "values": [{"measurement": "level of expression of MMP-3, After", "setting": "Normal1 (normal person)", "value": 39.23}, {"measurement": "level of expression of MMP-3, Total (After minus Before)", "setting": "Normal1 (normal person)", "value": 12.56}, {"measurement": "level of expression of MMP-3, After", "setting": "Normal2 (normal person)", "value": 53.05}, {"measurement": "level of expression of MMP-3, Total (After minus Before)", "setting": "Normal2 (normal person)", "value": 11.49}, {"measurement": "level of expression of MMP-3, After", "setting": "[1]", "value": 48.35}, {"measurement": "level of expression of MMP-3, Total (After minus Before)", "setting": "[1]", "value": 14.86}, {"measurement": "level of expression of MMP-3, After", "setting": "[2]", "value": 68.97}, {"measurement": "level of expression of MMP-3, Total (After minus Before)", "setting": "[2]", "value": 43.64}, {"measurement": "level of expression of MMP-3, After", "setting": "[3]", "value": 63.65}, {"measurement": "level of expression of MMP-3, Total (After minus Before)", "setting": "[3]", "value": 27.52}, {"measurement": "level of expression of MMP-3, After", "setting": "RA (s)", "value": 64.53}, {"measurement": "level of expression of MMP-3, Total (After minus Before)", "setting": "RA (s)", "value": 26.12}]}
